The values below come from PubChem BioAssay AID602167 (The Scripps Research Institute Molecular Screening Center, 2012).

As usually defined, the IC50 is the concentration that inhibits the measured activity by half.

The source made the active and inactive calls. How the calls were made is not given here.

This assay deals with transactivating tegument protein VP16 (Human herpesvirus 1), as a GAL4-VP16 activation-domain luciferase reporter. Put plainly: GAL4-VP16 reporter repression curves – cell-based, luminescence, high throughput, SRC3 series, counter-screen for SRC3 inhibitor project, dose response (AID 602167). The conditions noted are these: VP16 transactivation luciferase reporter cells. In general terms: Counterscreens check selectivity or assay interference.
In the case of `c1csc(Cc2nn3c(-c4ccncc4)nnc3s2)c1`, the IC50 entry is “inactive”.

Regarding `OCCN1CCN(C(=S)c2ccc(-c3ccccc3)cc2)CC1`, the IC50 is > 35.9 µM (inactive).

Regarding `NNC(=O)c1cc2ccccc2cc1O`, the IC50 entry is “inactive”.

`O=C(NCCc1ccccc1)c1ccc2c(c1)OCCO2`: the IC50 was 5.83 µM.

In the case of `CCCCC(=O)NC(c1ccc(Cl)cc1Cl)c1ccc2cccnc2c1O` (stereo unspecified), the IC50 is 4.78 µM.

Turning to `c1ccc2c(c1)Nc1ccncc1S2`, the IC50 entry was “inactive”.

Take `Nc1nc2c(nnn2C2CC(O)C(CO)O2)c(=O)[nH]1` (stereo unspecified): the IC50 entry was “inactive”.

In the case of `Cc1ccc(-n2c(C)cc(C(=O)COc3cccnc3[N+](=O)[O-])c2C)cc1`, the IC50 entry was “inactive”.

For the compound `CC(C)(C)c1ccc(-c2noc(CCC(=O)Nc3cccnc3)n2)cc1`, the IC50 entry was “inactive”.

Take `COc1cc2c(cc1OC)C(C)N(C(=O)c1cccc([N+](=O)[O-])c1)CC2` (stereo unspecified): the half-maximal inhibitory concentration (IC50) is 8.56 µM.

In the case of `COc1ccc(-c2cn[nH]c2-c2ccc(OC)cc2O)cc1`, the IC50 was 6.04 µM.

Turning to `C=CCn1c(C)cc(C(=O)COc2ccc(C)nc2[N+](=O)[O-])c1C`, the IC50 entry was “inactive”.

Regarding `Cc1ccc(/C=C2/SC(=S)N(CCCC(=O)Nc3ccc(O)cc3)C2=O)cc1`, the IC50 entry is “inactive”.

For the compound `CCCS(=O)(=O)Nc1ccc(Nc2c3ccccc3nc3ccccc23)c(OC)c1`, the IC50 was > 35.9 µM (inactive).

Take `COc1cc(/C=C(/C(=O)c2cccs2)c2nc3ccccc3[nH]2)cc(OC)c1O`: the IC50 was 8.01 µM.

As for `CC(=O)Nc1ccc(SCC(=O)c2cc(C)n(-c3ccccc3F)c2C)cc1`, the IC50 is > 12 µM (inactive).

As to `COc1ccc(-c2nsc3c(N4CCCCC4)ncnc23)cc1`, the IC50 result is “inactive”.

Take `NC(=S)N/N=C1\CCSc2ccc(Cl)cc21`: the IC50 result was “inactive”.

Consider `CCOc1ccc(-c2cc(C)n3nc(C(N)=O)cc3n2)cc1`, for which the IC50 result is “inactive”.

`O=[N+]([O-])c1ccc(N(CCO)CCO)c2c1no[n+]2[O-]`: the IC50 is 5.59 µM.

Regarding `O=C(CNc1cccc([N+](=O)[O-])c1)N/N=C/c1ccc([N+](=O)[O-])o1`, the IC50 result was “inactive”.

As to `O=C(CCl)NC(Cc1ccccc1)c1ccccc1` (stereo unspecified), the IC50 result is “inactive”.

On to `Nc1ncccc1C(=O)OCC(=O)N1CCN(S(=O)(=O)c2ccc(Cl)cc2)CC1`, for which the IC50 was 9.87 µM.

`O=C(CC1CS(=O)(=O)CC1CC(=O)Nc1ccc2c(c1)OCCO2)Nc1ccc2c(c1)OCCO2` (stereo unspecified): the IC50 result is “inactive”.

Turning to `C(=NNc1ccc2ccccc2n1)c1ccccn1`, the IC50 entry was “inactive”.

Take `CCCC(=O)NC(c1ccc(Cl)cc1Cl)c1ccc2cccnc2c1O` (stereo unspecified): the concentration for half-maximal inhibition (IC50) is 4.42 µM.

In the case of `CC(=O)N1CCN(c2ncnc3ccccc23)CC1`, the IC50 entry is “inactive”.

Consider `CCCCN1C=CC(=C2C(=O)c3ccccc3C2=O)C=C1`, for which the IC50 was 5.59 µM.

In the case of `CCOc1ccc(/C=C2\SC(=S)N(CCCC(=O)NCCCN3CCOCC3)C2=O)cc1`, the IC50 entry is “inactive”.

As for `COc1ccc(/C=C2\CC/C(=C\c3ccc(OC)c(OC)c3)C2=O)cc1OC`, the IC50 entry was “inactive”.

Turning to `COc1ccc(Nc2ccncc2[N+](=O)[O-])cc1`, the 50% inhibitory concentration (IC50) was 6.45 µM.

In the case of `CCCc1c(C)nc2ccccc2c1SCCC#N`, the IC50 entry was “inactive”.

Turning to `Cn1cnc([N+](=O)[O-])c1Sc1nc(N)nc2c1ncn2C1OC(CO)C(O)C1O` (stereo unspecified), the half-inhibitory concentration (IC50) is 7.47 µM.

For `COc1ccc(CCNC(=O)c2nnn(-c3ccc4c(c3)OCCO4)c2N)cc1OC`, the IC50 result is “inactive”.

For the compound `COc1cccc(-c2nnc3sc(C4CCCCC4)nn23)c1`, the IC50 was 9.52 µM.

As to `C(=Cc1cnc2ccccc2n1)c1ccc2c(c1)OCO2`, the IC50 entry is “inactive”.

Turning to `O=c1[nH]c2ccccc2n1C1CCN(C(c2cccc3ccccc23)c2nnnn2-c2ccc3c(c2)OCCO3)CC1` (stereo unspecified), the IC50 was 7.28 µM.

As for `COc1ccc(C(C(=O)NC2CCCCC2)N(C(=O)CCl)c2ccc(OC)cc2)cc1` (stereo unspecified), the half-maximal inhibitory concentration (IC50) was 6.59 µM.

As to `COC(=O)c1c(C)n(-c2ccc(OC)cc2)c2ccc(O)cc12`, the IC50 was 8.88 µM.

Take `Fc1ccc(CSc2nnc(-c3ccncc3)o2)cc1`: the IC50 was 3.81 µM.

With `CCn1ccnc1CN(C)Cc1cn[nH]c1-c1ccc(OC)c(F)c1`, the concentration for half-maximal inhibition (IC50) is 7.96 µM.

Take `NS(=O)(=O)c1ccc(Sc2nc3ccccc3s2)c([N+](=O)[O-])c1`: the IC50 was 7.26 µM.

With `COc1cccc(NC(=O)CSc2nnc(-c3cc(C)n(-c4ccccc4)c3C)o2)c1`, the 50% inhibitory concentration (IC50) is 2.4 µM.

In the case of `Cc1ccc(C(=O)O/N=C(\N)c2ccccn2)c(Cl)c1`, the IC50 result was “inactive”.

For the compound `Cc1cc2nccc(-c3ccncc3)n2n1`, the IC50 result is “inactive”.

Turning to `O=C(COc1ccc(Cl)cc1)Nc1ccc(C(=O)NCc2cccnc2)cc1`, the IC50 result is “inactive”.

On to `CCc1nc(N)nc(N)c1-c1ccc(Cl)c([N+](=O)[O-])c1`, for which the IC50 is > 35.8 µM (inactive).

Take `CCCC(=O)NC(c1ccc2c(c1)OCO2)c1cc(Cl)c2cccnc2c1O` (stereo unspecified): the IC50 was 7.92 µM.

Turning to `Cc1ccc(C(=O)Nc2cnc3ccccc3c2)cc1`, the IC50 was 8.49 µM.

With `C#CC(=O)N(c1cc(OC)ccc1OC)C(C(=O)NC1CCCC1)c1cccs1` (stereo unspecified), the IC50 is > 35.9 µM (inactive).

On to `CCOc1cc(C(N)=O)cc(Br)c1OC`, for which the IC50 is > 35.9 µM (inactive).

On to `COc1cccc(CNc2ncnc3ccc(-c4c(C)noc4C)cc23)c1`, for which the IC50 is > 35.9 µM (inactive).

`CC(=O)c1ccc(Nc2c3c(nc4ccccc24)CCCC3)cc1`: the IC50 entry was “inactive”.

On to `COc1ccc(/C=C2/SC(=S)N(CCC(=O)O)C2=O)cc1`, for which the IC50 was > 35.9 µM (inactive).

Regarding `CCC(=O)N1CCN(c2ccnc3cc(Cl)ccc23)CC1`, the IC50 entry is “inactive”.

Turning to `COc1ccccc1N(C(=O)CCl)c1cn(C(C)=O)c2ccccc12`, the IC50 was 8.58 µM.

As to `O=C(Nc1nc2ccccc2s1)C1c2ccccc2Oc2ccccc21`, the IC50 entry is “inactive”.

For the compound `COc1cc(NS(C)(=O)=O)ccc1Nc1c2ccccc2nc2ccccc12`, the IC50 was > 35.9 µM (inactive).

`COc1cc(C(=O)N/N=C(\c2ccccc2)c2ccccn2)cc(OC)c1OC`: the IC50 is 7.23 µM.

With `COc1ccc(-n2cnc3c(sc4nccc(N(C)C)c43)c2=O)cc1`, the IC50 entry was “inactive”.

As to `CC[C@@]1(O)C(=O)OCc2c1cc1n(c2=O)Cc2cc3c(NC(=O)CN)cccc3nc2-1`, the IC50 is > 35.9 µM (inactive).

For `Cc1ccc2nc(C(F)(F)F)c(C#N)c(N)c2c1`, the IC50 result is “inactive”.

In the case of `C=CCn1c(O)c(C(C)=NCc2cc(OC)cc(OC)c2)c(=O)[nH]c1=O`, the IC50 result was “inactive”.

In the case of `CC(C)(C)c1cc(C(=O)N/N=C/c2ccc(O)cc2)n(-c2ccccc2)n1`, the IC50 entry is “inactive”.

With `CCOc1cc(/C=C2\CCC/C(=C\c3cc(Cl)c(O)c(OCC)c3)C2=O)cc(Cl)c1O`, the IC50 was 4.82 µM.

As for `Cc1sc2ncnc(N3CCC(C(=O)Nc4ccccc4C(C)(C)C)CC3)c2c1C`, the half-maximal inhibitory concentration (IC50) was 8.88 µM.

With `CC(=O)/C(N=Nc1ccc2c(c1)OCCO2)=C(\C)O`, the IC50 was > 12 µM (inactive).

For the compound `CN(C)c1ccc(CNC(=O)CCNS(=O)(=O)c2cc(Br)cnc2N)cc1`, the half-inhibitory concentration (IC50) was 8.6 µM.

Take `NC(=S)N/N=C1\CCOc2ccc(Cl)cc21`: the IC50 result was “inactive”.

On to `Cc1cc(C(=O)COC(=O)C2=COCCO2)c(C)n1-c1ccccc1`, for which the IC50 is > 12 µM (inactive).

As to `COc1cc(/C=N/NC(=Nc2ccc(C)cc2)c2nc3ccccc3s2)ccc1O`, the IC50 entry was “inactive”.

For the compound `CCCNC(=O)c1nnsc1S(=O)(=O)c1ccc(Cl)cc1`, the IC50 entry was “inactive”.

Consider `CN(Cc1cnc2nc(N)nc(N)c2n1)c1ccc(C(=O)NC(CCC(=O)O)C(=O)O)cc1` (stereo unspecified), for which the IC50 was > 35.9 µM (inactive).

`CN(C)S(=O)(=O)c1ccc(N2CCN(S(=O)(=O)c3ccc(F)cc3)CC2)c(Cl)c1`: the IC50 was 9.39 µM.

Regarding `CC1CCN(C2=NC(=O)/C(=C/c3ccccc3F)S2)CC1`, the IC50 entry was “inactive”.

With `COc1ccc(COC(=O)C2=C(C)NC(=O)NC2c2ccc(F)cc2)cc1` (stereo unspecified), the IC50 was 9.08 µM.

Turning to `O=C(CCCc1nc(-c2ccccc2Cl)no1)NC1CCCC1`, the IC50 entry is “inactive”.

Turning to `Nc1nc(CCl)nc(Nc2cccc3ccccc23)n1`, the IC50 result was “inactive”.

As for `C[C@@H](C(=O)Nc1ccc2c(c1)OCCO2)n1c(=O)[nH]c2ccccc2c1=O`, the IC50 result is “inactive”.

As to `COc1cc2oc(=O)cc(-c3ccc(-c4ccc(CO)cc4)cc3)c2c(OC)c1OC`, the concentration for half-maximal inhibition (IC50) is 5.56 µM.

As to `COc1cccc(/C=N/Nc2ccc([N+](=O)[O-])cn2)c1O`, the concentration for half-maximal inhibition (IC50) is 4.48 µM.

For the compound `O=C(COC(=O)c1ccc[nH]c1=O)Nc1ccc(N2CCCCC2)cc1`, the IC50 was > 35.9 µM (inactive).

As for `CC(=O)c1cccc(-c2csc3ncnc(Sc4nnnn4C)c23)c1`, the IC50 is 6.89 µM.

As for `CCN(c1cccc(C)c1)c1ncnc2nc[nH]c12`, the IC50 entry was “inactive”.

In the case of `O=C(CCl)N(c1ccccc1)C1CCCCC1`, the IC50 result is “inactive”.

`N#Cc1c2ccc(O)cc2n2ccccc12`: the IC50 is > 35.9 µM (inactive).

Regarding `COC(=O)c1cccc2c1-c1ccccc1/C2=N/O`, the half-maximal inhibitory concentration (IC50) is 5.73 µM.

With `O=S(=O)(/C(=C\c1ccc(C(F)(F)F)cc1)c1nc2ccccc2[nH]1)c1ccccc1`, the half-inhibitory concentration (IC50) is 3.93 µM.

`O=C(Nc1cccnc1)c1ccc(C(=O)Nc2cccnc2)cc1`: the IC50 is > 35.9 µM (inactive).

On to `CNC(=O)c1cccn(Cc2ccc(C(F)(F)F)cc2)c1=O`, for which the IC50 is > 35.8 µM (inactive).

Take `Cc1c(Cl)cccc1NC(=O)Nc1ccccc1C(N)=O`: the IC50 was > 35.9 µM (inactive).

Consider `Nc1ncnc(NCc2ccccc2)c1[N+](=O)[O-]`, for which the IC50 entry is “inactive”.

For the compound `CC(C)N(c1ccccc1)c1ccc(NC(=O)CCl)cc1`, the IC50 entry is “inactive”.

On to `CS(=O)c1nc(-c2ccc(Br)cc2)cc(-c2ccccc2)c1C#N` (stereo unspecified), for which the IC50 result is “inactive”.

As for `CN1C(=O)C2(C(C#N)=C(N)N(c3cc(Cl)cc(Cl)c3)C3=C2C(=O)CC(C)(C)C3)c2ccccc21` (stereo unspecified), the IC50 result is “inactive”.

On to `CCOC(=O)CC(=O)CSc1nccc(-c2cccnc2)n1`, for which the IC50 result is “inactive”.
